Values joined by “and” are separate entries in the source; they are usually repeats but may differ in a detail not shown here. Equal values may be shown once. Read-outs that look alike come from different tables or passages of the source.
Assay: Pharmacokinetics after repeated oral administration of 35 μg/kg of fluralaner in dogs after feeding
Assay type: in vivo, beagle dogs
Conditions: oral 35 μg/kg Days 0-3, dogs; for concentration at 480 h / concentration at 576 h / concentration at 672 h / AUC(0-inf) / AUC(0-t) / Cmax / half-life: beagle, dog, plasma, po; for concentration at 480 h / concentration at 576 h / concentration at 672 h: 35 μg/kg; for AUC(0-inf) / AUC(0-t) / Cmax / half-life: 35 ug/kg
Experimental: The first objective of the study was to obtain the pharmacokinetic parameters after repeated oral administration of 35 μg/kg of fluralaner in dogs, 30 to 35 minutes after feeding.
The second objective was to investigate the pharmacodynamics between the fluralaner plasmatic dose and the effectiveness against fleas. • IVP: Investigational Veterinary Product, is pure Fluralaner+DMSO (35 μg/kg on Days 0 to 3 (0.35 mL/kg)) • Control product is DMSO (0.35 mL/kg on Days 0 to 3)
On Days 0, 1, 2 and 3, all dogs assigned to group 2 received the Investigational Veterinary Product. On Days 0 to 3 all dogs in group 1 received the control product at a volume equal to the dogs in group 2. Dogs assigned to group 1 received the control product and served as Placebo controls. The quantity of Investigational Veterinary Product and control product administered was calculated according to the dog's individual body weight measured on Day −1.
Blood samples were taken from all dogs prior to Investigational Veterinary Product treatment or control product administration on Day 0 and on Days 1 (+24 hours), 2 (+48 hours), 3 (+72 hours), 4 (+96 hours), 5 (+120 hours), 10 (+240 hours), 15 (+360 hours), 20 (+480 hours), 24 (+576 hours) and Day 28 (+672 hours).
On days of administration of pre-Investigational Veterinary Product or Control Product, dogs were fed (the same dog food) approximately half of their normal daily ration 30 minutes to 35 minutes prior to administration. Food consumed by the time of administration was calculated and recorded. The remainder of their normal daily ration was fed immediately after administration.
The PK parameters of fluralaner were calculated using a non-compartmental approach.
The following rules were applied for the calculation of the PK parameters: • All the plasma concentrations, validated by the bioanalytical laboratory, were used for the PK analysis. • The actual blood sampling times were used throughout. • Concentrations below the Limit of Quantification (LOQ) value were considered as zero from time zero (pre-dose) up to the time at which the first quantifiable concentration above the LOQ value was observed. Concentrations below the LOQ value between two quantifiable concentrations were considered as missing. Trailing concentrations below the LOQ value were not used in calculations.
Cmax the observed maximum concentration in plasma measured after dosing.
tmax the time at which Cmax was apparent.
λz the terminal rate constant (λz) was estimated by log-linear regression analysis on data points visually assessed, to be on the terminal log-linear phase. For the slope of the terminal elimination phase to be accepted as reliable, the following criteria were used: • the terminal data points were apparently randomly distributed about a single straight line (on visual inspection), • a minimum of three data points, including the last measured data point and excluding Cmax, were available for the regression.
t1/2 the terminal plasma half-life (t1/2) was calculated according to the following equation: […]
AUC0-t the area under the concentration-time curve from time zero (pre-dose) to the time of last quantifiable concentration (t) was calculated using a linear trapezoidal method.
[AUC0-∞=AUC0-t+(Ct/λz)], where Ct was the observed concentration of drug for the last sample on the PK profile in which the drug was detected, and λz was as defined above.
The extrapolated area under the curve, expressed as a percentage of the total area, AUCinf, was also calculated as: Area Extra (%)=(AUC0-∞−AUC0-t)/AUC0-∞*100%.

[1] = n=6, read-out: fluralaner concentration levels, Mean
[2] = n=6, read-out: fluralaner concentration levels, Median
[3] = n=6, read-out: fluralaner concentration levels, Minimum
[4] = read-out: fluralaner concentration levels, individual animal
[5] = n=6, read-out: fluralaner concentration levels, GeoMean
[6] = n=6, read-out: fluralaner concentration levels, Maximum

## Cc1cc(C2=NOC(c3cc(Cl)cc(Cl)c3)(C(F)(F)F)C2)ccc1C(=O)NCC(=O)NCC(F)(F)F (stereo not drawn) [fluralaner, Fluralaner]
[1]
  concentration at 480 h: 22.4 ng/mL
  concentration at 576 h: 17.4 ng/mL
  concentration at 672 h: 12.8 ng/mL
[2]
  concentration at 480 h: 23.2 ng/mL
  concentration at 576 h: 16.1 ng/mL
  concentration at 672 h: 12.8 ng/mL
[3]
  concentration at 480 h: 17.1 ng/mL
  concentration at 576 h: 13.3 ng/mL
  concentration at 672 h: 9.1 ng/mL
[4]
  concentration at 480 h: 25.3 ng/mL
  concentration at 576 h: 17.3 ng/mL
  concentration at 672 h: 16 ng/mL
[5]
  concentration at 576 h: 17.1 ng/mL
  concentration at 672 h: 12.5 ng/mL
[6]
  concentration at 576 h: 22.2 ng/mL
  concentration at 672 h: 16 ng/mL
n=6, read-out: AUC 0-inf, GeoMean
  AUC(0-inf): 27900 ng·h/mL
n=6, read-out: AUC 0-inf, Mean
  AUC(0-inf): 28100 ng·h/mL
n=6, read-out: AUC 0-inf, Median
  AUC(0-inf): 28300 ng·h/mL
n=6, read-out: AUC 0-t, GeoMean
  AUC(0-t): 23900 ng·h/mL
n=6, read-out: AUC 0-t, Mean
  AUC(0-t): 23900 ng·h/mL
n=6, read-out: AUC 0-t, Median
  AUC(0-t): 24000 ng·h/mL
n=6, read-out: Cmax, GeoMean
  Cmax: 84 ng/mL
n=6, read-out: Cmax, Mean
  Cmax: 84.4 ng/mL
n=6, read-out: Cmax, Median
  Cmax: 87 ng/mL
n=6, read-out: t½ (terminal half-life), Mean (converted)
  half-life: 217 h
n=6, read-out: t½, GeoMean (converted)
  half-life: 214 h
n=6, read-out: t½, Median (converted)
  half-life: 233 h
read-out: AUC 0-inf, individual animal
  AUC(0-inf): 31000 ng·h/mL
read-out: AUC 0-t, individual animal
  AUC(0-t): 25000 ng·h/mL
read-out: Cmax, individual animal
  Cmax: 71.8 ng/mL
read-out: maximum concentration (Cmax), range
  Cmax: 71.8 to 92.4 ng/mL
read-out: terminal half-life, range
  half-life: 155 to 261 h
read-out: t½, individual animal (converted)
  half-life: 261 h
  AUC 0-inf, individual animal: 26895 ng·h/mL and 31726 ng·h/mL and 29670 ng·h/mL and 23684 ng·h/mL and 25369 ng·h/mL
  AUC 0-t, individual animal: 23395 ng·h/mL and 26334 ng·h/mL and 24538 ng·h/mL and 21644 ng·h/mL and 22612 ng·h/mL
  AUC extrap, individual animal: 19.5% and 13.0% and 17.0% and 17.3% and 8.6% and 10.9%
  Cmax, individual animal: 92.4 ng/mL and 89.4 ng/mL and 76.6 ng/mL and 91.6 ng/mL and 84.5 ng/mL
  Lambda z, individual animal: 0.0027 and 0.0030 (2×) and 0.0029 and 0.0045 and 0.0037
  t½, individual animal: 233.3 h and 233.6 h and 235.6 h and 155.2 h and 185.6 h
n=6
  AUC 0-inf, Maximum: 31726 ng·h/mL
  AUC 0-inf, Minimum: 23684 ng·h/mL
  AUC 0-t, Maximum: 26334 ng·h/mL
  AUC 0-t, Minimum: 21644 ng·h/mL
  AUC extrap, GeoMean: 13.82%
  AUC extrap, Maximum: 19.5%
  AUC extrap, Mean: 14.38%
  AUC extrap, Median: 15.00%
  AUC extrap, Minimum: 8.6%
  Cmax, Maximum: 92.4 ng/mL
  Lambda z, GeoMean: 0.00324 h⁻¹
  Lambda z, Maximum: 0.0045
  Lambda z, Mean: 0.00329 h⁻¹
  Lambda z, Median: 0.00297 h⁻¹
  Lambda z, Minimum: 0.0027 h⁻¹
  t½, Maximum: 261.4 h
  t½, Minimum: 155.2 h
